This note sets out measurements from US20250009742A1 (priority 2021, published 2025).

The test system of the first assay is intracellular HBV DNA. In words: Real-time PCR for intracellular HBV DNA in HepAD38 cells. Format: cell-based. The settings on record: 65 hours treatment. On the procedure: HepAD38 cells were cultured in DMEM medium (Welgene) supplemented with 200 unit/mL penicillin, 200 μg/mL streptomycin, and 10% FBS. During maintenance and passage, the cells were cultured together with 0.4 μg/mL tetracycline. Two days before the treatment with compounds for inducing HBV replication was started, the medium was replaced with a tetracycline-free complete growth medium. […]
HepAD38 cells were treated with a compound for 65 hours and then recovered, and intracellular HBV DNA was extracted therefrom according to the protocol in the DNeasy Blood & Tissue Kit (Qiagen). The primers and probes used to quantify HBV DNA were 5′-[…]-3′, 5′-[…]-3′, and 5′-/56-FAM/TGT CCT GGT/ZEN/TAT CGC TGG ATG TGT CT/3IABkFQ/-3′. The HBV DNA was amplified by real-time PCR assay using LightCycler 480 (Roche) (J. Virol., 2018, 92(16):e00339-18). All of the processes were confirmed in duplicate.
(Quantitative PCR measures a nucleic acid by following its amplification.)
What is called IC50 is the concentration that gives 50% inhibition. Lower therefore signals inhibition by little substance. On to `COc1ncc(N(Cc2cc(C(F)(F)F)[nH]n2)C(=O)Nc2ccc(F)c(C(F)F)n2)cn1` [Example 204, 3-(6-(difluoromethyl)-5-fluoropyridin-2-yl)-1-(2-methoxypyrimidin-5-yl)-1-((5-(trifluoromethyl)-1H-pyrazol-3-yl)methyl)urea], for which the IC50 was determined as 36 nM.
Turning to `COc1ncc(N(Cc2cc(C(F)F)[nH]n2)C(=O)Nc2ccc(F)c(C(F)F)n2)cn1` [Example 210, 1-((5-(difluoromethyl)-1H-pyrazol-3-yl)methyl)-3-(6-(difluoromethyl)-5-fluoropyridin-2-yl)-1-(2-methoxypyrimidin-5-yl)urea], half-maximal inhibition (IC50) was put at 130 nM. Compared with the last compound, the IC50 is about 3.6-fold higher.

Staying with this assay, now noted: Hepatitis B virus, HePAD38, 65 h, 65 hours treatment.
Regarding `COc1ncc(N(Cc2cc(C(F)F)[nH]n2)C(=O)Nc2cc(F)c(F)c(C#N)c2)cn1` [Example 150, 3-(3-cyano-4,5-difluorophenyl)-1-((5-(difluoromethyl)-1H-pyrazol-3-yl)methyl)-1-(2-methoxypyrimidin-5-yl)urea], the IC50 is more than 1100 nM.
`COc1ncc(N(Cc2cc(C#N)[nH]n2)C(=O)Nc2ccc(F)c(C#N)c2)cn1` [Example 157, 1-((5-cyano-1H-pyrazol-3-yl)methyl)-3-(3-cyano-4-fluorophenyl)-1-(2-methoxypyrimidin-5-yl)urea]: half-maximal inhibition (IC50) required 66 nM.
Still for that read-out and setting: in the case of `COc1ncc(N(Cc2cc(C(F)(F)F)[nH]n2)C(=O)Nc2ccnc(C#N)c2F)cn1` [Example 158, 3-(2-cyano-3-fluoropyridin-4-yl)-1-(2-methoxypyrimidin-5-yl)-1-((5-(trifluoromethyl)-1H-pyrazol-3-yl)methyl)urea] it was 230 nM; in that of `COc1ncc(N(Cc2cc(C(F)(F)F)[nH]n2)C(=O)Nc2ccc(F)c(C#N)n2)cn1` [Example 160, 3-(6-cyano-5-fluoropyridin-2-yl)-1-(2-methoxypyrimidin-5-yl)-1-((5-(trifluoromethyl)-1H-pyrazol-3-yl)methyl)urea], 430 nM.
Same read-out and setting: in the case of `COc1ncc(N(Cc2cc(C(F)(F)F)[nH]n2)C(=O)Nc2cc(C#N)c(F)cn2)cn1` [Example 161, 3-(4-cyano-5-fluoropyridin-2-yl)-1-(2-methoxypyrimidin-5-yl)-1-((5-(trifluoromethyl)-1H-pyrazol-3-yl)methyl)urea] it was 74 nM; in that of `COC12CC(N(Cc3cc(C(F)(F)F)[nH]n3)C(=O)Nc3ccc(F)c(C#N)c3)(C1)C2` [Example 162, 3-(3-cyano-4-fluorophenyl)-1-(3-methoxybicyclo[1.1.1]pentan-1-yl)-1-((5-(trifluoromethyl)-1H-pyrazol-3-yl)methyl)urea], 36 nM.
Same read-out and setting: then `COc1ncc(N(Cc2cc(C(F)(F)F)[nH]n2)C(=O)Nc2ccc(Cl)nc2Cl)cn1` [Example 165, 3-(2,6-dichloropyridin-3-yl)-1-(2-methoxypyrimidin-5-yl)-1-((5-(trifluoromethyl)-1H-pyrazol-3-yl)methyl)urea], with more than 1100 nM; and `COc1ncc(N(Cc2cc(C(F)F)[nH]n2)C(=O)Nc2ccc(Cl)nc2Cl)cn1` [Example 166, 3-(2,6-dichloropyridin-3-yl)-1-((5-(difluoromethyl)-1H-pyrazol-3-yl)methyl)-1-(2-methoxypyrimidin-5-yl)urea], with more than 1100 nM.
With `COc1ncc(N(Cc2cc(C(F)(F)F)[nH]n2)C(=O)Nc2ccc(C#N)c(C#N)c2)cn1` [Example 167, 3-(3,4-dicyanophenyl)-1-(2-methoxypyrimidin-5-yl)-1-((5-(trifluoromethyl)-1H-pyrazol-3-yl)methyl)urea], inhibition was half-maximal at 190 nM (IC50).
Same read-out and setting: then `COc1ncc(N(Cc2cc(C(F)(F)F)[nH]n2)C(=O)Nc2nc(F)ccc2F)cn1` [Example 169, 3-(3,6-difluoropyridin-2-yl)-1-(2-methoxypyrimidin-5-yl)-1-((5-(trifluoromethyl)-1H-pyrazol-3-yl)methyl)urea], with more than 1100 nM; and `COc1ncc(N(Cc2cc(C(F)(F)F)[nH]n2)C(=O)Nc2ccc(F)c(F)n2)cn1` [Example 170, 3-(5,6-difluoropyridin-2-yl)-1-(2-methoxypyrimidin-5-yl)-1-((5-(trifluoromethyl)-1H-pyrazol-3-yl)methyl)urea], with 300 nM.
Still for that read-out and setting: in the case of `COc1ncc(N(Cc2cc(C(F)(F)F)[nH]n2)C(=O)Nc2cnc(F)c(F)c2)cn1` [Example 171, 3-(5,6-difluoropyridin-3-yl)-1-(2-methoxypyrimidin-5-yl)-1-((5-(trifluoromethyl)-1H-pyrazol-3-yl)methyl)urea] it was 280 nM.
The same measure, in the same setting: in the case of `COc1ncc(N(Cc2cc(C(F)(F)F)[nH]n2)C(=O)Nc2ccnc(C(F)F)c2)cn1` [Example 175, 3-(2-(difluoromethyl)pyridin-4-yl)-1-(2-methoxypyrimidin-5-yl)-1-((5-(trifluoromethyl)-1H-pyrazol-3-yl)methyl)urea] it was 41 nM; in that of `COc1ncc(N(Cc2cc(C(F)(F)F)[nH]n2)C(=O)Nc2cccc(C(F)F)n2)cn1` [Example 177, 3-(6-(difluoromethyl)pyridin-2-yl)-1-(2-methoxypyrimidin-5-yl)-1-((5-(trifluoromethyl)-1H-pyrazol-3-yl)methyl)urea], 100 nM; in that of `COc1ncc(N(Cc2cc(C(F)(F)F)[nH]n2)C(=O)Nc2cccc(F)n2)cn1` [Example 183, 3-(6-fluoropyridin-2-yl)-1-(2-methoxypyrimidin-5-yl)-1-((5-(trifluoromethyl)-1H-pyrazol-3-yl)methyl)urea], more than 1100 nM.
Turning to `COc1ncc(N(Cc2cc(C(F)(F)F)[nH]n2)C(=O)NC23CC(F)(C2)C3)cn1` [Example 185, 3-(3-fluorobicyclo[1.1.1]pentan-1-yl)-1-(2-methoxypyrimidin-5-yl)-1-((5-(trifluoromethyl)-1H-pyrazol-3-yl)methyl)urea], the IC50 is more than 1100 nM.
On the same count and under the same terms, then `COc1ncc(N(Cc2cc(C(F)F)[nH]n2)C(=O)Nc2ccc(F)c(C(F)F)c2)cn1` [Example 190, 1-((5-(difluoromethyl)-1H-pyrazol-3-yl)methyl)-3-(3-(difluoromethyl)-4-fluorophenyl)-1-(2-methoxypyrimidin-5-yl)urea], with 20 nM; and `COc1ccc(N(Cc2cc(C(F)F)[nH]n2)C(=O)Nc2ccc(F)c(C(F)F)c2)cn1` [Example 191, 1-((5-(difluoromethyl)-1H-pyrazol-3-yl)methyl)-3-(3-(difluoromethyl)-4-fluorophenyl)-1-(6-methoxypyridin-3-yl)urea], with 24 nM; and `COc1ccc(N(Cc2cc(C(F)(F)F)[nH]n2)C(=O)Nc2ccc(F)c(C(F)F)c2)nn1` [Example 200, 3-(3-(difluoromethyl)-4-fluorophenyl)-1-(6-methoxypyridazin-3-yl)-1-((5-(trifluoromethyl)-1H-pyrazol-3-yl)methyl)urea], with more than 1100 nM.
Same read-out and setting: then `COc1cc(N(Cc2cc(C(F)(F)F)[nH]n2)C(=O)Nc2ccc(F)c(C(F)F)c2)cnn1` [Example 203, 3-(3-(difluoromethyl)-4-fluorophenyl)-1-(6-methoxypyridazin-4-yl)-1-((5-(trifluoromethyl)-1H-pyrazol-3-yl)methyl)urea], with 13 nM.
On the same count and under the same terms, in the case of `COc1ncc(N(Cc2n[nH]c(C(F)(F)F)c2CC(C)(C)O)C(=O)Nc2ccc(F)c(C(F)F)c2)cn1` [Example 205, 3-(3-(difluoromethyl)-4-fluorophenyl)-1-((4-(2-hydroxy-2-methylpropyl)-5-(trifluoromethyl)-1H-pyrazol-3-yl)methyl)-1-(2-methoxypyrimidin-5-yl)urea] it was more than 1100 nM.
The compound `COc1ncc(N(Cc2n[nH]c(C(F)F)c2CC(C)(C)O)C(=O)Nc2ccc(F)c(C(F)F)c2)cn1` [Example 208, 1-((5-(difluoromethyl)-4-(2-hydroxy-2-methylpropyl)-1H-pyrazol-3-yl)methyl)-3-(3-(difluoromethyl)-4-fluorophenyl)-1-(2-methoxypyrimidin-5-yl)urea] came in with an IC50 of more than 1100 nM.
In turn, `COc1ncc(N(Cc2cc(C#N)[nH]n2)C(=O)Nc2ccc(F)c(C(F)F)c2)cn1` [Example 209, 1-((5-cyano-1H-pyrazol-3-yl)methyl)-3-(3-(difluoromethyl)-4-fluorophenyl)-1-(2-methoxypyrimidin-5-yl)urea] displayed an IC50 of 16 nM.
With `COc1ncc(N(Cc2cc(C(F)(F)F)[nH]n2)C(=O)Nc2ccnc(C(F)F)c2F)cn1` [Example 211, 3-(2-(difluoromethyl)-3-fluoropyridin-4-yl)-1-(2-methoxypyrimidin-5-yl)-1-((5-(trifluoromethyl)-1H-pyrazol-3-yl)methyl)urea], the half-maximal inhibitory concentration (IC50) came to 31 nM.
Same read-out and setting: in the case of `COc1ncc(NC(=O)N(Cc2cc(C(F)(F)F)[nH]n2)c2cnc(OC)nc2)cn1` [Example 216, 1,3-bis(2-methoxypyrimidin-5-yl)-1-((5-(trifluoromethyl)-1H-pyrazol-3-yl)methyl)urea] it was more than 1100 nM.
On the same count and under the same terms, then `COc1ncc(N(Cc2cc(C(F)(F)F)[nH]n2)C(=O)NC23CC(C)(C2)C3)cn1` [Example 217, 1-(2-methoxypyrimidin-5-yl)-3-(3-methylbicyclo[1.1.1]pentan-1-yl)-1-((5-(trifluoromethyl)-1H-pyrazol-3-yl)methyl)urea], with more than 1100 nM.
`COc1ncc(N(Cc2cc(C(F)(F)F)[nH]n2)C(=O)Nc2cnc(SC)nc2)cn1` [Example 218, 1-(2-methoxypyrimidin-5-yl)-3-(2-(methylthio)pyrimidin-5-yl)-1-((5-(trifluoromethyl)-1H-pyrazol-3-yl)methyl)urea] came in with an IC50 of more than 1100 nM.
Same read-out and setting: in the case of `COc1ncc(N(Cc2cc(C(F)F)[nH]n2)C(=O)Nc2cc(F)c(F)c(F)c2)cn1` [Example 220, 1-((5-(difluoromethyl)-1H-pyrazol-3-yl)methyl)-1-(2-methoxypyrimidin-5-yl)-3-(3,4,5-trifluorophenyl)urea] it was 48 nM.
